Drawing on US5753675A, “Quinoline analogs of mevalonolactone and derivatives thereof” (Novartis Pharmaceuticals Corporation, priority 1990, dated 1998), this text covers ED50 and IC50 for four molecules.

The ED50 is the midpoint of the dose-response relation.

Where two headings read alike, the source gives them in different places.

The test system of assay [1] is 3β-hydroxysterol synthesis (cholesterol biosynthesis). Put plainly: Test B. In Vivo Cholesterol Biosynthesis Inhibition Test. The conditions noted are these: Rattus norvegicus, ip, 1 h, read-out: ED50 (inhibition of 3β-hydroxysterol synthesis). On the procedure:
Test B. In Vivo Cholesterol Biosynthesis Inhibition Test: In vivo studies utilize male Wistar Royal Hart rats weighing 150±20 g. which have been kept for 7-10 days on an altered light cycle (6:30 A.M.-6:30 P.M. dark) housed two per cage and fed powdered Purina Rat Chow and water ad libitum. Three hours before the diurnal maximum of cholesterol synthesis at mid-dark, the rats are administered the test substance (e.g., 0.01-20 mg./kg. body weight) dissolved or as a suspension in 0.5% carboxymethyl-cellulose in a volume of 1 ml./100 g. body weight. Controls receive vehicle alone. One hour after receiving the test substance, the rats are injected intraperitoneally with about 25 μCi/100 g. body weight of sodium [1-^14 C]acetate 1-3 mCi/mmol. Two hours after mid-dark, blood samples are obtained under sodium hexobarbital anesthesia, and the serum is separated by centrifugation. […] The [^14 C]digitonides are then counted by liquid scintillation spectrometry. […] Inhibition of 3β-hydroxysterol synthesis is calculated from the reduction in the nCi of 3β-hydroxysterols formed from test groups compared to controls.

Assay [2] concerns the target T1, HMG-CoA reductase (Rattus norvegicus, UniProt P51639).
T1 construct: rat liver microsomal suspensions, freshly prepared from male Sprague-Dawley rats; from tissue; host or cells: rat liver microsomes (male Sprague-Dawley, 150-225 g)
T1 sequence (P51639 1-887): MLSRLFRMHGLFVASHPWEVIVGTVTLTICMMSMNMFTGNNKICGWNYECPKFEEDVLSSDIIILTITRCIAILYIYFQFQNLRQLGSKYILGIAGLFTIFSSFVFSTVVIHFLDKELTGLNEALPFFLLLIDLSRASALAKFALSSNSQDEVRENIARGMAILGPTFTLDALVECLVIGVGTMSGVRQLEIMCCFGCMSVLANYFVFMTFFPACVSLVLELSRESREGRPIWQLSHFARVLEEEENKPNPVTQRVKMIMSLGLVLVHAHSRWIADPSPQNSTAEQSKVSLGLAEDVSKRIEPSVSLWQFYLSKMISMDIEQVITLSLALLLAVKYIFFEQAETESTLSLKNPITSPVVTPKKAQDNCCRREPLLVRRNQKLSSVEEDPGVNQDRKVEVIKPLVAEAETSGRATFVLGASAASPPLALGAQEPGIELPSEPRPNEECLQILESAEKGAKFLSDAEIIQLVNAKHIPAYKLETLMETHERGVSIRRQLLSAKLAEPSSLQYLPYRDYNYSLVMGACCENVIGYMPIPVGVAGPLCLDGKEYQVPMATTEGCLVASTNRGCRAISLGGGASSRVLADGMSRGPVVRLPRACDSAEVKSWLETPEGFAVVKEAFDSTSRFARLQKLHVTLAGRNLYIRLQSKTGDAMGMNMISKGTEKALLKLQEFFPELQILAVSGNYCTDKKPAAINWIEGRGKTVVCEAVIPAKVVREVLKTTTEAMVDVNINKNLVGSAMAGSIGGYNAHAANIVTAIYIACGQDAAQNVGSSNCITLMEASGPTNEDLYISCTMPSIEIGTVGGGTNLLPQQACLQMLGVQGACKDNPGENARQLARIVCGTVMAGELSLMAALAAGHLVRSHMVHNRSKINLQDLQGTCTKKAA
Put plainly: Test A. In Vitro Microsomal Assay of HMG-CoA Reductase Inhibition. The format is biochemical. The conditions noted are these: rat liver microsomal suspensions, [14C]HMG-CoA substrate; test concentrations 0.05-1000 μmolar; read-out: IC50 (concentration calculated to produce a 50% inhibition of HMG-CoA reductase activity). On the procedure: Test A. In Vitro Microsomal Assay of HMG-CoA Reductase Inhibition:
200 μl. aliquots (1.08-1.50 mg./ml.) of rat liver microsomal suspensions, freshly prepared from male Sprague-Dawley rats (150-225 g. body weight), in Buffer A with 10 mmol. dithiothreitol are incubated with 10 μl. of a solution of the test substance in dimethylacetamide and assayed for HMG-CoA reductase activity as described in Ackerman et al., J. Lipid Res. 18, 408-413 (1977). In the assay the microsomes are the source of the HMG-CoA reductase enzyme which catalyzes the reduction of HMG-CoA to mevalonate. The assay employs a chloroform extraction or a Dowex® 1X8 (200-400 mesh, formate form) ion exchange column to separate the product, [^14 C]mevalonolactone, formed by the HMG-CoA reductase reduction of the substrate, [^14 C]HMG-CoA. [^3 H]mevalonolactone is added as an internal reference. Inhibition of HMG-CoA reductase is calculated from the decrease in specific activity ([^14 C/^3 H]mevalonate) of test groups compared to controls.
IC50 is the concentration of the test substance in the assay system calculated to produce a 50% inhibition of HMG-CoA reductase activity. The tests are run at concentrations of test substance between 0.05 and 1000 μmolar.

[3] abbreviates: male Wistar Royal Hart rats, in 0.5% carboxymethyl-cellulose, sodium [1-14C]acetate i.p. one hour after test substance, serum.

On to `CCOC(=O)C[C@H](O)C[C@H](O)/C=C/c1c(C(C)C)nc2ccccc2c1-c1ccc(F)cc1` (relative stereo) [Example 3C], for which the ED50 in assay [1] (setting [3]) was 0.49 mg/kg. The IC50 in assay [2] is 410 nM. Consider `CC[C@H](C)C(=O)O[C@H]1CCC=C2C=C[C@H](C)[C@H](CC[C@@H]3C[C@@H](O)CC(=O)O3)[C@H]21` [Compactin, reference compound], for which the ED50 in assay [1] (setting [3]) was 3.5 mg/kg. For the molecule `CC(C)c1nc2ccccc2c(-c2ccc(F)cc2)c1/C=C/C(O)CC(O)CC(=O)O` (stereo not drawn) [Example 4], the median effective dose (ED50) in assay [1] (setting [3]) is over 1 mg/kg. Further, the IC50 in assay [2] is 530 nM. `CC[C@H](C)C(=O)O[C@H]1C[C@@H](C)C=C2C=C[C@H](C)[C@H](CC[C@@H]3C[C@@H](O)CC(=O)O3)[C@H]21` [Mevinolin, reference compound]: in assay [1], the ED50 came out at 0.41 mg/kg.
